These results are taken from patent US20150086695A1, “SWEETENER COMPOSITION, SWEETENER PRODUCTS, AND METHODS OF SWEETENING” (Almendra Americas, LLC, priority 2013, published 2015).

The test relates to trained expert panelists. In words: Sensory panel scaling of taste attributes on 0-15 scales (formulation study ballot). In kind it is in vivo, human. As to conditions: 0-15 scale; for Bitterness Intensity @ 2 Min (Bitter2) / Numbing/Tingling Sensation @ 2 Min (Numb/Ting2) / Sweetness Intensity @ 2 Min (Sweet2): at 2 minutes; for Bitterness Intensity @ 2 Min (Bitter2) / Numbing/Tingling Sensation @ 2 Min (Numb/Ting2) / Sweetness Intensity @ 2 Min (Sweet2) / Astringency Intensity (Astring) / Bitterness Intensity (IB) / Mouthfeel (Mfeel) / Numbing/Tingling Sensation (Numb/Ting) / Soapiness (Soap) / Sweetness Intensity Initial (Sweetness) / Sweetness Onset/Appearance Time (Onset): defined calibration rating, Sucrose Reference 10.0% sucrose, REB A Reference 500 PPM, both in 0.1% citric acid. The source says:
Tongue numbing can also manifest itself as “tongue tingling”. These non-sugar-like characteristics appear inter-related in the sense that formulation as well as temperature changes affect the perception of several of them. Another taste characteristic of steviol glycosides, particularly those with relatively low levels of REB A, is soapiness, a characteristic that results from the surfactant portion of the molecule. To quantify all of these sensory effects by existing methods would require an expert sensory panel and at least 4 different sensory tests (i.e., C/R Function Determination, Flavor Profile Analysis, Temporal Profile Analysis and Adaptation Profile Analysis). However, to address a need for rapid screening of HP sweetener formulations, Prakash et al., described a scaling technique to quantify all of these sensory percepts in a single test (reference shown below under the table). An improvement of this methodology is described below.
Prior to the evaluation of test samples, all panelists must first calibrate themselves on Sucrose and Reference Samples (e.g., REB A) to ensure that they are able to appropriately scale taste attributes of interest. These Reference Samples are to be available in ample quantities for all experimental sessions. The Sucrose Reference is 10.0% sucrose acidified with 0.1% citric acid. For illustration purposes, an example of a Reference Sample can be a REB A Reference Sample that has 500 PPM REB A in the same system for general formula optimization studies.
Take a ca. 15 mL sample of the Sucrose Reference into the mouth swishing it around vigorously and note all attributes of the sensory experience. After ca. 10 sec, expectorate the sample and immediately rinse vigorously with ca. 15 mL of water, expectorating the rinse water. Over the next 2 minutes, while minimizing tongue movement in the mouth, pay attention to any rebound or intensification in perceived sweetness, bitterness, or numbing/tingling sensation. The intensity of the attribute perceived at 2 minutes is an estimate of its lingering tendency. Upon completion of calibration with the Sucrose Reference, calibration with the REB A Reference is carried out in the same way. The attribute ratings for the Sucrose and REB A References, all on 0-15 scales, are defined as follows: […]
After completion of reference sample calibrations, as well as in follow up of all sample tests, rinse the mouth vigorously with ca. 15 mL portions of the Sucrose Reference solution and two ca. 15 mL portions of water in effort to get the sensory system back to baseline. […]

Regarding `C=C1C[C@@]23CC[C@H]4[C@@](C)(CCC[C@@]4(C)C(=O)O[C@@H]4O[C@H](CO)[C@@H](O)[C@H](O)[C@H]4O)[C@@H]2CC[C@]1(O[C@@H]1O[C@H](CO)[C@@H](O)[C@H](O[C@@H]2O[C@H](CO)[C@@H](O)[C@H](O)[C@H]2O)[C@H]1O[C@@H]1O[C@H](CO)[C@@H](O)[C@H](O)[C@H]1O)C3` [REB A100, rebaudioside A], the “Bitterness Intensity @ 2 Min (Bitter2)” value worked out at 2, the “Numbing/Tingling Sensation @ 2 Min (Numb/Ting2)” value came to 2, the “Sweetness Intensity @ 2 Min (Sweet2)” value turned out to be 3 and the “Astringency Intensity (Astring)” value was 0. Besides, the “Bitterness Intensity (IB)” value stood at 3, the “Mouthfeel (Mfeel)” value came to 0, the “Numbing/Tingling Sensation (Numb/Ting)” value stood at 0 and the “Soapiness (Soap)” value came out at 1. Further, the “Sweetness Intensity Initial (Sweetness)” value was found to be 10 and the “Sweetness Onset/Appearance Time (Onset)” value worked out at 3.

Regarding `OC[C@H]1O[C@@](CO)(O[C@H]2O[C@H](CO)[C@@H](O)[C@H](O)[C@H]2O)[C@@H](O)[C@@H]1O` [Sucrose, sucrose], the “Bitterness Intensity @ 2 Min (Bitter2)” value amounted to 0, the “Numbing/Tingling Sensation @ 2 Min (Numb/Ting2)” value is on record as 0, the “Sweetness Intensity @ 2 Min (Sweet2)” value was found to be 0 and the “Astringency Intensity (Astring)” value is reported as 0. Moreover, the “Bitterness Intensity (IB)” value came to 0, the “Mouthfeel (Mfeel)” value is given as 10, the “Numbing/Tingling Sensation (Numb/Ting)” value came to 0 and the “Soapiness (Soap)” value is reported as 0. For the same compound, the “Sweetness Intensity Initial (Sweetness)” value worked out at 10 and the “Sweetness Onset/Appearance Time (Onset)” value is reported as 0. In addition, the “scores on all lingering attributes” value (Example 9, REBA100 500 mg/L in 0.1% citric acid, two panelists) came out at 0.
